28 compounds from ChEMBL document CHEMBL1143771, “Isothiazoles as active-site inhibitors of HCV NS5B polymerase” (Bioorg Med Chem Lett, 2007) can be followed below.

Target in the first assay: not listed separately
Nature of the assay: Inhibition of HCV recombinant NS5B polymerase. Details: species or system Hepacivirus hominis.
For orientation: IC50 means the concentration that inhibits the measured activity by half. For `COc1cccc(Nc2snc(O)c2C#N)c1`, the IC50 was more than 100000 nM. The same measure, in the same setting: as for `N#Cc1c(O)nsc1Nc1cc(C(F)(F)F)cc(S(=O)(=O)NC23CC4CC(CC(C4)C2)C3)c1`, the figure is 3500 nM. Same read-out and setting: as for `N#Cc1c(O)nsc1Nc1cccc(S(=O)(=O)NC23CC4CC(CC(C4)C2)C3)c1`, the figure is 1400 nM; as for `N#Cc1c(O)nsc1Nc1cc(F)cc(F)c1`, 300 nM; as for `COC(=O)c1ccc(Cl)cc1Nc1snc(O)c1C#N`, 4700 nM. As to `N#Cc1c(O)nsc1Nc1cc(C(F)(F)F)cc(C(F)(F)F)c1`, the concentration for half-maximal inhibition (IC50) turned out to be 5900 nM. For `N#Cc1c(O)nsc1Nc1cc(C(=O)O)cc(C(F)(F)F)c1`, the IC50 stood at 1500 nM. In the case of `N#Cc1c(O)nsc1Nc1nc2ccc(F)cc2s1`, the half-maximal inhibitory concentration (IC50) stood at 44000 nM. As for `CCCCS(=O)(=O)c1cccc(Nc2snc(O)c2C#N)c1`, the IC50 came to 8300 nM. Take `COC(=O)c1cc(Nc2snc(O)c2C#N)cc(C(F)(F)F)c1`: the IC50 turned out to be 2000 nM.

As for `N#Cc1c(O)nsc1Nc1cc(Cl)ccc1OCc1ccccc1`, the IC50 came out at 1000 nM. Regarding `N#Cc1c(O)nsc1Nc1cccc(F)c1`, the 50% inhibitory concentration (IC50) is 900 nM.

Turning to `N#Cc1c(O)nsc1Nc1cc(Cl)cc(Cl)c1`, the half-maximal inhibitory concentration (IC50) is 200 nM. Same read-out and setting: as for `N#Cc1c(O)nsc1Nc1cc(Cl)cc(S(=O)(=O)NC23CC4CC(CC(C4)C2)C3)c1`, the figure is 1800 nM; as for `N#Cc1c(O)nsc1Nc1cc(Br)ccc1OCc1ccc2ccccc2c1`, 1700 nM. Take `N#Cc1c(O)nsc1Nc1ccc(I)cc1`: the half-maximal inhibitory concentration (IC50) was found to be 1200 nM. Same read-out and setting: as for `N#Cc1c(O)nsc1Nc1cccc(S(N)(=O)=O)c1`, the figure is 9700 nM; as for `CS(=O)(=O)c1cccc(Nc2snc(O)c2C#N)c1`, 9700 nM; as for `Cc1cc(C)cc(Nc2snc(O)c2C#N)c1`, more than 100000 nM. As to `N#Cc1c(O)nsc1Nc1cc(Cl)ccc1OCc1ccc2ccccc2c1`, the concentration for half-maximal inhibition (IC50) was found to be 6400 nM. With `N#Cc1c(O)nsc1Nc1ccc(F)cc1`, the IC50 is 1200 nM. Consider `N#Cc1c(O)noc1Nc1cc(Br)cc(Br)c1`, for which the IC50 was 33000 nM. Take `N#Cc1c(O)nsc1Nc1cc(F)ccc1Oc1ccccc1`: the half-inhibitory concentration (IC50) is 500 nM. With `N#Cc1c(O)nsc1Nc1ccccc1Oc1ccccc1`, the IC50 was 1300 nM.

Turning to `N#Cc1c(O)nsc1Nc1cc(Br)cc(C(F)(F)F)c1`, the IC50 worked out at 300 nM. Take `COC(=O)c1ccc(-c2ccc(Cl)cc2Nc2snc(O)c2C#N)o1`: the IC50 was 1800 nM. Still for that read-out and setting: as for `N#Cc1c(O)nsc1Nc1ccc(Cl)cc1Cl`, the figure is 700 nM. Regarding `N#Cc1c(O)nsc1Nc1cc(Br)ccc1OCc1ccccc1`, the 50% inhibitory concentration (IC50) is 300 nM.

A further assay relates to Hepatitis C virus. Description: Antiviral activity against Hepatitis C virus by cell based replicon assay. Format: functional, organism-based, Hepacivirus hominis. Background: Replicon systems follow genome replication, usually without infectious particles.
For orientation: EC50 means the concentration needed to bring the measured effect to its halfway point. On to `N#Cc1c(O)nsc1Nc1cc(F)cc(F)c1`, for which the EC50 was determined as 220 nM. Turning to `N#Cc1c(O)nsc1Nc1cc(C(F)(F)F)cc(C(F)(F)F)c1`, the concentration for a half-maximal effect (EC50) amounted to 2000 nM. `N#Cc1c(O)nsc1Nc1cccc(F)c1` yielded an EC50 of 2900 nM. In the case of `N#Cc1c(O)nsc1Nc1cc(Cl)cc(Cl)c1`, the EC50 was 100 nM.

`N#Cc1c(O)nsc1Nc1ccc(I)cc1` registered an EC50 of 1100 nM. For `N#Cc1c(O)nsc1Nc1cc(F)ccc1Oc1ccccc1`, a half-maximal response (EC50) required 3400 nM.
